Patent US7683062B2, “Crystalline form” (sanofi-aventis U.S. LLC, priority 2005, dated 2010)

Tests used:
[1] = system: animal models of rheumatoid arthritis; test: Animal models of rheumatoid arthritis; format: in vivo; conditions: by modulating the immune response
[2] = target: peripheral-type benzodiazepine receptors (Homo sapiens, UniProt P30536); conditions: cited from earlier work
[3] = Stability testing of polymorphic form (FTIR); format: physicochemical
Method: Fourier Transform IR spectra were obtained with a Nicolet 750 Magna brand system. The drug substance was ground with dry potassium bromide (KBr) at a concentration of 1 mg drug substance/200 mg KBr and compressed into a disk (200 mg) at 10,000 lbs for analysis.
Samples were analyzed at 2 months. The chamber humidity was controlled via a saturated sodium chloride aqueous solution.

[4] = Preliminary absorption studies with standard formulations; format: in vivo

Chain of peripheral-type benzodiazepine receptors (P30536 whole entry): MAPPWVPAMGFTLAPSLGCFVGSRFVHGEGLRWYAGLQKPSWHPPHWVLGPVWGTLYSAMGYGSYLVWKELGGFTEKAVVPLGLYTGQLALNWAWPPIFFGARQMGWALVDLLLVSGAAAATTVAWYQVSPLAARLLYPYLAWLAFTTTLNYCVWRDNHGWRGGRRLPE

Q: Which “pharmacological activity in animal models of rheumatoid arthritis” value [1] does the source give for CN(C)C(=O)Cc1nn(-c2ccccc2)c(=O)c2c1c1ccc(Cl)cc1n2C [7-Chloro-N,N,5-trimethyl-4-oxo-3-phenyl-3,5-dihydro-4H-pyridazino[4,5-b]indole-1-acetamide] here?
A: has shown pharmacological activity

Q: What about the “affinity for the peripheral-type benzodiazepine receptors” value [2] of the same compound?
A: high affinity

Q: With CN(C)C(=O)Cc1nn(-c2ccccc2)c(=O)c2c1c1ccc(Cl)cc1n2C [Form II, 7-chloro-N,N,5-trimethyl-4-oxo-3-phenyl-3,5-dihydro-4H-pyridazino[4,5-b]indole-1-acetamide] as the compound, how does the “physical stability (conversion to Form I by FTIR)” value ([3]; 50° C./75% relative humidity, open glass vials, two months, FIG. 9) read?
A: no changes indicative of conversion to Form I

Q: What about the “physical stability (conversion into other form)” value ([3]; normal storage conditions (room temperature)) of the same compound?
A: does not convert into any other form

Q: For CN(C)C(=O)Cc1nn(-c2ccccc2)c(=O)c2c1c1ccc(Cl)cc1n2C [Form I, 7-chloro-N,N,5-trimethyl-4-oxo-3-phenyl-3,5-dihydro-4H-pyridazino[4,5-b]indole-1-acetamide], which “absorption of the drug” value [4] is on record?
A: limited absorption
